The results in this text go back to BindingDB's records for doi:10.1021/jm301365e (Sichuan University, 2012).

In the test the target is Tyrosine-protein kinase SYK (Homo sapiens) (UniProt P43405). Briefly: Inhibition of human recombinant SYK by radiometric kinase assay.

Each structure is given as a SMILES string.

The IC50 is the point on the concentration scale where inhibition reaches its midpoint. On to `CN1CCN(c2ccc(Nc3ncc4nc(Nc5ccccc5)n(C5CCCC5)c4n3)cc2)CC1`, for which the IC50 worked out at 720 nM.
